According to patent US20170226081A1, “GLUCOSE TRANSPORT INHIBITORS” (Bayer Pharma Aktiengesellschaft, priority 2014, published 2017):

Experiments:
GLUT1 = biological target: T1, GLUT1 (Homo sapiens, UniProt P11166); assay: Indirect measurement of GLUT activity by quantification of intracellular ATP levels (glucose induced ATP increase); format: cell-based; details: DLD1 cells; 1 mM glucose, 1 uM Rotenone, 15 min; standardized to cytochalasin B IC50 values; read-out: IC50 regarding glucose induced ATP increase (GLUT1 inhibition)
T1 construct: endogenous in cells
T1 sequence (P11166 1-492): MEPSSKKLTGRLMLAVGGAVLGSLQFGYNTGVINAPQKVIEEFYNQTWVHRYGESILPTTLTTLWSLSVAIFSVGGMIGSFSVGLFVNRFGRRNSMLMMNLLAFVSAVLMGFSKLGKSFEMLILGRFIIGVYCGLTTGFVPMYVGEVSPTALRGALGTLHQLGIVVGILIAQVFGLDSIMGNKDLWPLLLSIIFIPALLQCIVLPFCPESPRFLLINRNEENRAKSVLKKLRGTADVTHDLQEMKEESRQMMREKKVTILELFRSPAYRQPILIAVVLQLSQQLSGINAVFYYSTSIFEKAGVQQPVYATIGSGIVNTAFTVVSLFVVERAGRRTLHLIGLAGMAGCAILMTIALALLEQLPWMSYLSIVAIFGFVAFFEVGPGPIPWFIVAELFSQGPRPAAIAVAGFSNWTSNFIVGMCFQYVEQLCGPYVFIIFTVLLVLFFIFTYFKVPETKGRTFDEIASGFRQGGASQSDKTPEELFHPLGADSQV
Source text: (§1) It is well known that a combination of small-molecule inhibitors of mitochondrial electron transport chain and glucose catabolism synergistically suppress ATP production and impair cellular viability (Ulanovskaya et al., 2008, 2011; Liu, et al. 2001). We therefore used DLD1 or CHO-K1 cells in combination with an oxidative phosphorylation inhibitor to identify GLUT inhibitors. Cell lines were maintained in DMEM medium supplemented with 10% FCS and 1% Penicillin-Streptomycin solution and 2% Glutamax. The cells were treated with trypsin and seeded into 384 plates at a density of 4000 cells/well. The cells were then cultured overnight in glucose free media containing 1% FCS to reduce intracellular ATP levels. After 24 h the cells were incubated at 37° C. containing the appropriate glucose or in case of GLUT2 fructose concentration (1 mM and 30 mM respectively) with or without compounds and 1 uM Rotenone for 15 min. The CellTiter-Glo® Luminescent Cell Viability Assay from Promega was then used to measure ATP levels. Compounds able to reduce the ATP Levels within 15 min of glucose application were considered to be glucose uptake inhibitors.

GLUT2 = biological target: T2, GLUT2 (Homo sapiens, UniProt P11168); assay: Indirect measurement of GLUT activity by quantification of intracellular ATP levels (fructose induced ATP increase); format: cell-based; details: 30 mM fructose, 1 uM Rotenone, 15 min; read-out: IC50 regarding fructose induced ATP increase (GLUT2 inhibition)
T2 sequence (P11168 1-524): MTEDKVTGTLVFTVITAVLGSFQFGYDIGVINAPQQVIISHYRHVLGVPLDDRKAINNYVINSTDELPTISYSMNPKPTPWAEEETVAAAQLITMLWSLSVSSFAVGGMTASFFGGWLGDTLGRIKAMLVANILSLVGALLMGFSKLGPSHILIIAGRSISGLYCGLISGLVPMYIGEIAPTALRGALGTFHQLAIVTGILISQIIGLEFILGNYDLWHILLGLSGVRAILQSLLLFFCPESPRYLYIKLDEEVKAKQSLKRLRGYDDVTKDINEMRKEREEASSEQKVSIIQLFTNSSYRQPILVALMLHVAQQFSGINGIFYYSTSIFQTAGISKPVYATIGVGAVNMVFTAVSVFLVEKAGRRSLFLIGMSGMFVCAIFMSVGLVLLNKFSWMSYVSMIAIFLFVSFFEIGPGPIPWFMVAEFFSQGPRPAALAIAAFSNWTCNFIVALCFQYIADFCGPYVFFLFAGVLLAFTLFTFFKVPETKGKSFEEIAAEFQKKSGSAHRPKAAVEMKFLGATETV
Source text: as §1

Row | Structure (SMILES) | IC50 (GLUT1) | IC50 (GLUT2)
1 | Cc1nn(Cc2ccn(C)n2)cc1NC(=O)c1cc(C(N)=O)nc2ccccc12 [Example 63, N^4-{3-methyl-1-[(1-methyl-1H-pyrazol-3-yl)methyl]-1H-pyrazol-4-yl}quinoline-2,4-dicarboxamide] | 0.19 µM | 
2 | CCc1noc(Cn2cc(NC(=O)c3cc(C(F)(F)F)nc4ccc(Br)cc34)c(C)n2)n1 [Example 64, 6-bromo-N-{1-[(3-ethyl-1,2,4-oxadiazol-5-yl)methyl]-3-methyl-1H-pyrazol-4-yl}-2-(trifluoromethyl)quinoline-4-carboxamide] | 0.391 µM | 
3 | CNC(=O)c1nc(Cn2cc(NC(=O)c3cc(C(N)=O)nc4ccccc34)c(C)n2)no1 [Example 65, N^4-(3-methyl-1-{[5-(methylcarbamoyl)-1,2,4-oxadiazol-3-yl]methyl}-1H-pyrazol-4-yl)quinoline-2,4-dicarboxamide] | 0.301 µM | 
4 | CCc1noc(Cn2cc(NC(=O)c3cc(C(N)=O)nc4ccccc34)c(C)n2)n1 [Example 66, N^4-{1-[(3-ethyl-1,2,4-oxadiazol-5-yl)methyl]-3-methyl-1H-pyrazol-4-yl}quinoline-2,4-dicarboxamide] | 0.43 µM | 
5 | CCS(=O)(=O)N1CCC(Cn2cc(NC(=O)c3cc(C(F)(F)F)nc4ccc(Br)cc34)c(C)n2)CC1 [Example 67, 6-bromo-N-(1-{[1-(ethylsulfonyl)piperidin-4-yl]methyl}-3-methyl-1H-pyrazol-4-yl)-2-(trifluoromethyl)quinoline-4-carboxamide] | 0.665 µM | 
6 | Cc1nc(Cn2cc(NC(=O)c3cc(C(N)=O)nc4ccccc34)c(C)n2)cs1 [Example 68, N^4-{3-methyl-1-[(2-methyl-1,3-thiazol-4-yl)methyl]-1H-pyrazol-4-yl}quinoline-2,4-dicarboxamide] | 0.26 µM | 
7 | Cc1nc(Cn2cc(NC(=O)c3cc(C(F)(F)F)nc4ccc(Br)cc34)c(C)n2)cs1 [Example 70, 6-bromo-N-{3-methyl-1-[(2-methyl-1,3-thiazol-4-yl)methyl]-1H-pyrazol-4-yl}-2-(trifluoromethyl)quinoline-4-carboxamide] | 0.275 µM | 
8 | Cc1cc(Cn2cc(NC(=O)c3cc(C(F)(F)F)nc4ccc(Br)cc34)c(C)n2)no1 [Example 71, 6-bromo-N-{3-methyl-1-[(5-methyl-1,2-oxazol-3-yl)methyl]-1H-pyrazol-4-yl}-2-(trifluoromethyl)quinoline-4-carboxamide] | 0.294 µM | 
9 | CCS(=O)(=O)N1CCC(Cn2cc(NC(=O)c3cc(C(N)=O)nc4ccccc34)c(C)n2)CC1 [Example 72, N^4-(1-{[1-(ethylsulfonyl)piperidin-4-yl]methyl}-3-methyl-1H-pyrazol-4-yl)quinoline-2,4-dicarboxamide] | 0.247 µM | 
10 | Cc1nn(Cc2ccn(C)n2)cc1NC(=O)c1cc(C(F)(F)F)nc2ccc(Br)cc12 [Example 73, 6-bromo-N-{3-methyl-1-[(1-methyl-1H-pyrazol-3-yl)methyl]-1H-pyrazol-4-yl}-2-(trifluoromethyl)quinoline-4-carboxamide] | 0.172 µM | 

Compounds with a lower IC50 (GLUT1), results first:

Row | IC50 (GLUT1) | IC50 (GLUT2) | Structure (SMILES)
11 | 0.061 µM | 5.21 µM | Cc1ccc2nc(C)cc(C(=O)Nc3cn(Cc4ccc(F)cc4)nc3C)c2c1 [Example 1, N-[1-(4-fluorobenzyl)-3-methyl-1H-pyrazol-4-yl]-2,6-dimethylquinoline-4-carboxamide]
12 | 0.0043 µM | 36.1 µM | Cc1nn(Cc2ccc(C#N)cc2)cc1NC(=O)c1cc(C(N)=O)nc2ccccc12 [Example 9, N^4-[1-(4-cyanobenzyl)-3-methyl-1H-pyrazol-4-yl]quinoline-2,4-dicarboxamide]
13 | 0.023 µM |  | CCc1nn(Cc2ccc(C#N)cc2)cc1NC(=O)c1cc(C(N)=O)nc2ccccc12 [Example 60, N^4-[1-(4-cyanobenzyl)-3-ethyl-1H-pyrazol-4-yl]quinoline-2,4-dicarboxamide]
14 | 0.12 µM |  | CC(C)c1nn(Cc2ccc(C#N)cc2)cc1NC(=O)c1cc(C(N)=O)nc2cc(F)ccc12 [Example 62, N^4-[1-(4-cyanobenzyl)-3-isopropyl-1H-pyrazol-4-yl]-7-fluoroquinoline-2,4-dicarboxamide]
15 | 0.064 µM |  | CNC(=O)c1nc(Cn2cc(NC(=O)c3cc(C(F)(F)F)nc4ccc(Br)cc34)c(C)n2)no1 [Example 69, 6-bromo-N-(3-methyl-1-{[5-(methylcarbamoyl)-1,2,4-oxadiazol-3-yl]methyl}-1H-pyrazol-4-yl)-2-(trifluoromethyl)quinoline-4-carboxamide]
16 | 0.153 µM |  | Cc1cc(Cn2cc(NC(=O)c3cc(C(N)=O)nc4ccccc34)c(C)n2)no1 [Example 74, N^4-{3-methyl-1-[(5-methyl-1,2-oxazol-3-yl)methyl]-1H-pyrazol-4-yl}quinoline-2,4-dicarboxamide]
